Source: ChEMBL document CHEMBL4819009, “Modulators of hERAP2 discovered by high-throughput screening” (Eur J Med Chem, 2021)

Columns and labels:
[1] = biological target: Leucyl-cystinyl aminopeptidase (IRAP), Homo sapiens (UniProt Q9UIQ6); test: Inhibition of recombinant human IRAP expressed in HEK293 cells at 100 uM using L-AMC as substrate preincubated for 30 mins followed by substrate addition measured every 3 mins for 1 hr by flourescence assay relative to control; conditions: time 90.0 min
Leucyl-cystinyl aminopeptidase (IRAP), Homo sapiens, sequence (Q9UIQ6 whole entry, looked up): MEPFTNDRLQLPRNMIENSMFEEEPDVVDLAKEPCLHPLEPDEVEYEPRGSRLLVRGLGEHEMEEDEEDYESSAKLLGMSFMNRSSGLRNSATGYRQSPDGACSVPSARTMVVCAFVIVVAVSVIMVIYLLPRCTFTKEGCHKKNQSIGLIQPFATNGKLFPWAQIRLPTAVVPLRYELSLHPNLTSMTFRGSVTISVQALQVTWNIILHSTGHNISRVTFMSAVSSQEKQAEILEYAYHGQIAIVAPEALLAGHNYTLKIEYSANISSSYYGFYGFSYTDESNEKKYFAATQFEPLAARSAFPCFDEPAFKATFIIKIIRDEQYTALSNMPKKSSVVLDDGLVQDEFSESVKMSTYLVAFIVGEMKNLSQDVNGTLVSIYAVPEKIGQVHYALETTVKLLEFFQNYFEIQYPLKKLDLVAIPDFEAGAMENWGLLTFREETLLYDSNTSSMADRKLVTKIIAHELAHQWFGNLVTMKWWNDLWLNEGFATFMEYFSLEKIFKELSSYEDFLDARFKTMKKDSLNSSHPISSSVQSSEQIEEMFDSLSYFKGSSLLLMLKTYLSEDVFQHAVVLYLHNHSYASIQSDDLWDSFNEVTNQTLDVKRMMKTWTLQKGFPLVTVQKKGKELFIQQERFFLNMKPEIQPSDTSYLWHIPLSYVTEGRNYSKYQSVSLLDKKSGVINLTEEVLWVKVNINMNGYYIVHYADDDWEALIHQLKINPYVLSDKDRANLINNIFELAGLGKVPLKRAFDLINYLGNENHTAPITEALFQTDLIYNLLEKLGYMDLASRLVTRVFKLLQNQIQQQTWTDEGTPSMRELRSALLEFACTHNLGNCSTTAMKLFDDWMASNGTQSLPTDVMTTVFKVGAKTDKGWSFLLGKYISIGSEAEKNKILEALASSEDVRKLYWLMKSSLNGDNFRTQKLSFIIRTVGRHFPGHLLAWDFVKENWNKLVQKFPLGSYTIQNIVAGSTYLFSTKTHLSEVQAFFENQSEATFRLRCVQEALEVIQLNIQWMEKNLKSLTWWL

[2] = biological target: Endoplasmic reticulum aminopeptidase 1 (Homo sapiens) (UniProt Q9NZ08); test: Inhibition of recombinant C-terminal 10-His-tagged human ERAP1 at 100 uM using L-AMC as substrate preincubated for 30 mins followed by substrate addition measured every 3 mins for 1 hr by flourescence assay relative to control; conditions: time 90.0 min
Endoplasmic reticulum aminopeptidase 1 (Homo sapiens), sequence (Q9NZ08 whole entry): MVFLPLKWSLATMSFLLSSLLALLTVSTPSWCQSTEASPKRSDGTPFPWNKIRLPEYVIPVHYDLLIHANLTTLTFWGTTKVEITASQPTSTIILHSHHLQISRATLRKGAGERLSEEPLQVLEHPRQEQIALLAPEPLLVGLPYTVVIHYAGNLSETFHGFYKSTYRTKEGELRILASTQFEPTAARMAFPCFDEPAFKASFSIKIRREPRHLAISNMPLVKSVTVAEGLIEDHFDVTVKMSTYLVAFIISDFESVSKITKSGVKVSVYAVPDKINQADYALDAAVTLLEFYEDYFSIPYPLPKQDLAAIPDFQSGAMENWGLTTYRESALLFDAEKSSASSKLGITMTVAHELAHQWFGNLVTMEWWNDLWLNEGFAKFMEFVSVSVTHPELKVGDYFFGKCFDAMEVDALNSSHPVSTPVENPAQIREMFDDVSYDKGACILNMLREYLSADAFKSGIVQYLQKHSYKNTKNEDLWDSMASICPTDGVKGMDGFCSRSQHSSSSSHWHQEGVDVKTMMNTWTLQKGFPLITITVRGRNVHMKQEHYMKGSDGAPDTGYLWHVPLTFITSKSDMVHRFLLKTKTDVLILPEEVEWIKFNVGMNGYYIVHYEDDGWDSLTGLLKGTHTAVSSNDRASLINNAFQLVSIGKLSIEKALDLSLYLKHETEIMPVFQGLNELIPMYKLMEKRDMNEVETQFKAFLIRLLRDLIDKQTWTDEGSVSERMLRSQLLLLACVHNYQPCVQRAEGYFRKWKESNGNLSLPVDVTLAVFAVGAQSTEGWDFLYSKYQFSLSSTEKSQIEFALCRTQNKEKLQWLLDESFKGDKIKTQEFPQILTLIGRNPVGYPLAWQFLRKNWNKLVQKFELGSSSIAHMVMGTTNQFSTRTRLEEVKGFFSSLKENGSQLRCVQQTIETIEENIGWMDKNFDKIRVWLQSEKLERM

[3] = biological target: T1, Endoplasmic reticulum aminopeptidase 2 (Homo sapiens, UniProt Q6P179); test: Activation of recombinant ERAP2 (unknown origin) expressed in baculovirus infected Hi-5 insect cells at 100 uM using R-AMC as substrate preincubated for 30 mins followed by substrate addition and measured every 3 mins for 1 hr by flourescence assay relative to control; conditions: filed as activator, time 90.0 min
T1 sequence (Q6P179 whole entry): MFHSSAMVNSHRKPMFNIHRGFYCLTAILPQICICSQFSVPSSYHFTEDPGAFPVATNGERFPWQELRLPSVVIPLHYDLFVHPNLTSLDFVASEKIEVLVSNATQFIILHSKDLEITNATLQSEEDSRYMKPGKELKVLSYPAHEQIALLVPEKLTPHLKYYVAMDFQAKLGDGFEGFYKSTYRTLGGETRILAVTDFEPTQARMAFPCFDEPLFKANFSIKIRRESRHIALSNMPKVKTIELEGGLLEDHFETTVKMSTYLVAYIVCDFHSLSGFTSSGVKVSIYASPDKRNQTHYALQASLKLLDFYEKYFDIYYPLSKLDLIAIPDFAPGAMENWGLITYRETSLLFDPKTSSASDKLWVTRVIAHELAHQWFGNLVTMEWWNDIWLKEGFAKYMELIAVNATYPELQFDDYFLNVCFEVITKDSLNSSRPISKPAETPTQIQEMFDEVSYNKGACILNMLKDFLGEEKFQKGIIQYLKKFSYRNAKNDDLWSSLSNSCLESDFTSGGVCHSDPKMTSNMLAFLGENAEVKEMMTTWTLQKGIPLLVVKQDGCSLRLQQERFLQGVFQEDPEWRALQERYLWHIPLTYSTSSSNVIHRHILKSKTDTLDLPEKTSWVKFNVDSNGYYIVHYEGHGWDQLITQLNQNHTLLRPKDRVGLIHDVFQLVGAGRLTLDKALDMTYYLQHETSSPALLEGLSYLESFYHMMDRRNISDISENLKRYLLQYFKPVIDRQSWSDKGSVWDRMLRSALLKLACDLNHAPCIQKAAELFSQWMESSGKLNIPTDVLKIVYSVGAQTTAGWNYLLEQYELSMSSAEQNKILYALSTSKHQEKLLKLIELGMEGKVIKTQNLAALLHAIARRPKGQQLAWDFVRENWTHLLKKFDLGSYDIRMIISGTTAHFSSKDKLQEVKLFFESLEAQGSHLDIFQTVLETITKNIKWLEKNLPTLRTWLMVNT

[4] = biological target: T1, Endoplasmic reticulum aminopeptidase 2; test: Inhibition of human ERAP2 assessed as hydrolysis of KSIINFEKL to SIINFEKL measured after 2 hrs by LC-MS analysis
[5] = biological target: T1, Endoplasmic reticulum aminopeptidase 2; test: Inhibition of recombinant ERAP2 (unknown origin) expressed in baculovirus infected Hi-5 insect cells using R-AMC as substrate preincubated for 30 mins followed by substrate addition and measured every 3 mins for 1 hr by flourescence assay
[6] = biological target: T1, Endoplasmic reticulum aminopeptidase 2; test: Inhibition of recombinant ERAP2 (unknown origin) expressed in baculovirus infected insect cells at 2 mM using R-AMC as substrate preincubated for 30 mins followed by substrate addition and measured every 3 mins for 1 hr by flourescence assay relative to control; conditions: time 90.0 min
[7] = biological target: T1, Endoplasmic reticulum aminopeptidase 2; test: Inhibition of human ERAP2

| Compound | inhibition [1] [%] | inhibition [2] [%] | fold change (FC) [3] | further results |
| --- | --- | --- | --- | --- |
| CN(C(=O)c1ccc(N(CCc2ccccc2)S(=O)(=O)c2ccccc2)cc1)[C@@H](Cc1ccccc1)C(=O)O | 50 | < 20 | 1.76 | IC50 [4]: 89 µM |
| O=C(O)CN(CC(=O)N1CCN(Cc2ccccc2)C[C@@H]1Cc1c[nH]c2ccccc12)c1ccccc1 |  | < 10 |  |  |
| CC(C)C[C@H](NC(=O)[C@@H](O)[C@H](N)Cc1ccccc1)C(=O)O |  |  |  | inhibition [6]: 100% |
| C#CC[C@H](CP(=O)(O)[C@@H](N)CCc1ccccc1)C(=O)N[C@@H](Cc1ccccc1)C(N)=O |  |  |  | IC50 [7]: 33 µM |

Continued, in another order:

| inhibition [1] [%] | inhibition [2] [%] | fold change (FC) [3] | Compound | further results |
| --- | --- | --- | --- | --- |
| 50 | < 20 | 1.84 | CN(C(=O)c1ccc(N(CCc2ccccc2)S(=O)(=O)c2ccc(F)cc2)cc1)[C@@H](Cc1ccccc1)C(=O)O |  |
|  |  | 1.46 | CC(C)C[C@@H](C(=O)O)N(C)C(=O)c1ccc(N(CCc2ccccc2)S(=O)(=O)c2ccc(F)cc2)cc1 |  |
|  |  | 1.43 | CC(C)C[C@@H](C(=O)O)N(C)C(=O)c1ccc(N(CCc2ccccc2)S(=O)(=O)c2ccccc2)cc1 |  |
| 49 | 10 |  | CN(C(=O)c1ccc(N(CCN2CCCC2)S(=O)(=O)c2ccc(F)cc2)cc1)[C@@H](Cc1ccccc1)C(=O)O | IC50 [4]: 98 µM; IC50 [5]: 9.7 µM |
